For series [1], the target named is 11-beta-hydroxysteroid dehydrogenase 1 (Homo sapiens, UniProt P28845). Description: Inhibition of human 11beta HSD1 by SPA assay.
Series [2] concerns Mus musculus. Description: Inhibition of [3H]cortisone to [3H]cortisol conversion in mouse at 10 mg/kg, po administered as single dose after 4 hrs. It is filed as functional.
Series [3] has as its target 11-beta-hydroxysteroid dehydrogenase 1 (Mus musculus, UniProt P50172). Description: Inhibition of mouse 11beta HSD1 by SPA assay.
The target of series [4] is T1, Nuclear receptor subfamily 1 group I member 2 (Homo sapiens, UniProt O75469).
T1 sequence (O75469 whole entry): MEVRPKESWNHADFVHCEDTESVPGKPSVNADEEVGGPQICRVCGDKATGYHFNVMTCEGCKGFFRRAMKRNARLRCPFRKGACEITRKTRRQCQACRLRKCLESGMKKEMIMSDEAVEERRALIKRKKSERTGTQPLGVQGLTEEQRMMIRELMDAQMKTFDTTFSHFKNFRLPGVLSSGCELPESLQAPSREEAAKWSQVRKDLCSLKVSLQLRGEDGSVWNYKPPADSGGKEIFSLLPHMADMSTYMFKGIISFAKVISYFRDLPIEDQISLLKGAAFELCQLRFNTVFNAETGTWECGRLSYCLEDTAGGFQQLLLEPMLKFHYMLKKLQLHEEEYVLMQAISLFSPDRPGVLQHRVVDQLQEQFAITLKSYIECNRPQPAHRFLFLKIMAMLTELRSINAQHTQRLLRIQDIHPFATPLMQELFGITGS
Description: Agonist activity at human PXR. It is filed as functional.

Series [5] concerns Mus musculus. Description: Inhibition of [3H]cortisone to [3H]cortisol conversion in mouse at 10 mg/kg, po administered as single dose after 16 hrs. The series is classed as functional.
Series [6] concerns the target T2, 11-beta-hydroxysteroid dehydrogenase type 2 (Mus musculus, UniProt P51661).
T2 sequence (P51661 whole entry): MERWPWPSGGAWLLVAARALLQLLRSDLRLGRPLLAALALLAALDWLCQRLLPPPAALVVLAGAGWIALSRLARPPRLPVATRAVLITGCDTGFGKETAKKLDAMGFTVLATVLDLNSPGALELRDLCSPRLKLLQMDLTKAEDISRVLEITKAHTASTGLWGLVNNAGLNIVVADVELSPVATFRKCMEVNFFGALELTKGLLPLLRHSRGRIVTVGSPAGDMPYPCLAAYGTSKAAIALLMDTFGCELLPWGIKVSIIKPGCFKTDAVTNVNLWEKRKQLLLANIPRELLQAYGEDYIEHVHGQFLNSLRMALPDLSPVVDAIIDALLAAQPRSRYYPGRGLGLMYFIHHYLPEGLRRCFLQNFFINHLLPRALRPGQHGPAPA
Description: Inhibition of mouse 11beta HSD2.

The target of series [7] is T3, 11-beta-hydroxysteroid dehydrogenase type 2 (Homo sapiens) (UniProt P80365).
T3 sequence (whole entry): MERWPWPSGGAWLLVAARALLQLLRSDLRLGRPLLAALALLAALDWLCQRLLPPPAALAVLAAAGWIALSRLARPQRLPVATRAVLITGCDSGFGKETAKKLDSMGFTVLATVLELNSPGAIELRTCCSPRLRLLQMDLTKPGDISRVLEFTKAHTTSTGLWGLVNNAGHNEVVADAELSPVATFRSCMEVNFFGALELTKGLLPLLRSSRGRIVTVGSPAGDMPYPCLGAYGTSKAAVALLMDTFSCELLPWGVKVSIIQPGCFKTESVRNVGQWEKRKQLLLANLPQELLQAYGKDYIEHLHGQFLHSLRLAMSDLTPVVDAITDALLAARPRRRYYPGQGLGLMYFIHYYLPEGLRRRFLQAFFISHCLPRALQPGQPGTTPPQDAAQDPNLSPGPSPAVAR
As to conditions: at 4 µM.
Description: Inhibition of human 11beta HSD2 at 4 uM

The target in series [8] is T1, Nuclear receptor subfamily 1 group I member 2. Description: Agonist activity at human PXR at 10 uM. The series is classed as functional.

Where only a bound is given, the exact number is not on record here.

11-beta-hydroxysteroid dehydrogenase 1 (Homo sapiens, UniProt P28845), sequence (P28845 whole entry): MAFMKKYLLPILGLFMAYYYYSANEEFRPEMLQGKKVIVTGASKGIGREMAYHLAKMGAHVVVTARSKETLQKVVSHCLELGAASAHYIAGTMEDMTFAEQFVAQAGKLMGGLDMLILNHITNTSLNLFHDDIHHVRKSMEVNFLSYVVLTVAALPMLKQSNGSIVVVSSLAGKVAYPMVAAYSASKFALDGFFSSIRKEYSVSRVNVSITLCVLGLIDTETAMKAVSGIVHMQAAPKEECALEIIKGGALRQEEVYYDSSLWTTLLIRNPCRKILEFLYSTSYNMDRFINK
11-beta-hydroxysteroid dehydrogenase 1 (Mus musculus, UniProt P50172), sequence (P50172 whole entry): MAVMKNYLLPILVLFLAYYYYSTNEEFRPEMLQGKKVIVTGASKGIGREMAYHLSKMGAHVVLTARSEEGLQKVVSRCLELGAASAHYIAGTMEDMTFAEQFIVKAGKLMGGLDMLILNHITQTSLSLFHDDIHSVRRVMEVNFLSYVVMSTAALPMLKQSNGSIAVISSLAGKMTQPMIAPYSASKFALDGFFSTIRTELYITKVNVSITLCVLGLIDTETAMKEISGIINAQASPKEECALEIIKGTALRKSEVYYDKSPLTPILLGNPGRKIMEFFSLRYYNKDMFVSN

For orientation: IC50 means the midpoint of a concentration-inhibition curve. Usually inhibition in vivo stands for the percentage by which the read-out fell short of the control. The EC50 is the concentration needed to bring the measured effect to its halfway point. Low readings indicate an effect from little substance, high ones a need for much substance. The term inhibition denotes the share of the control response that was lost under treatment. Low readings indicate a weak effect, high ones a strong effect. On to `CCSc1ccccc1-c1ccc(-c2nnc(C3(c4ccc(Cl)cc4)CCC3)n2C)c(Cl)c1`, for which the IC50 in series [1] was 0.011 µM; in series [3], 0.0047 µM; in series [6], above 4 µM. In addition, the inhibition in vivo at 10 mg/kg in the series with Mus musculus [2] turned out to be 51%; in the series on Mus musculus [5], 1%. The compound further showed an EC50 in series [4] of 1.7 µM. This compound yielded an inhibition in series [7] of 54%. Besides, the Activity in series [8] was found to be 48%.
For `CCS(=O)(=O)c1cccc(-c2ccc(-c3nnc(C4(c5ccc(Cl)cc5)CCC4)n3C)c(Cl)c2)c1`, the IC50 in series [1] is 0.00098 µM; in series [3], 0.00098 µM; in series [6], above 4 µM. In addition, the inhibition in vivo at 10 mg/kg in the series on Mus musculus [2] stood at 93%; with Mus musculus [5] it was 29%. In addition, the concentration giving a half-maximal response (EC50) in series [4] came out at 25 µM. The same compound returned an inhibition in series [7] of 59%. In series [8], the Activity is reported as -31%.

These data come from ChEMBL document CHEMBL1150311, “4-Methyl-5-phenyl triazoles as selective inhibitors of 11beta-hydroxysteroid dehydrogenase type I” (Bioorg Med Chem Lett, 2008).
